Laboratory results reported in patent US20240360082A1, “SUBSTITUTED PYRIDONE COMPOUNDS USEFUL TO TREAT ORTH[…]” (priority 2021, published 2024).

Molecular target: influenza A virus minigenome (PB2, PB1, PA, NP proteins) (UniProt P04665)
Type: cell-based
Conditions: read-out: RNP_Hubei B

Sequence of influenza A virus minigenome (PB2, PB1, PA, NP proteins) (P04665 whole entry): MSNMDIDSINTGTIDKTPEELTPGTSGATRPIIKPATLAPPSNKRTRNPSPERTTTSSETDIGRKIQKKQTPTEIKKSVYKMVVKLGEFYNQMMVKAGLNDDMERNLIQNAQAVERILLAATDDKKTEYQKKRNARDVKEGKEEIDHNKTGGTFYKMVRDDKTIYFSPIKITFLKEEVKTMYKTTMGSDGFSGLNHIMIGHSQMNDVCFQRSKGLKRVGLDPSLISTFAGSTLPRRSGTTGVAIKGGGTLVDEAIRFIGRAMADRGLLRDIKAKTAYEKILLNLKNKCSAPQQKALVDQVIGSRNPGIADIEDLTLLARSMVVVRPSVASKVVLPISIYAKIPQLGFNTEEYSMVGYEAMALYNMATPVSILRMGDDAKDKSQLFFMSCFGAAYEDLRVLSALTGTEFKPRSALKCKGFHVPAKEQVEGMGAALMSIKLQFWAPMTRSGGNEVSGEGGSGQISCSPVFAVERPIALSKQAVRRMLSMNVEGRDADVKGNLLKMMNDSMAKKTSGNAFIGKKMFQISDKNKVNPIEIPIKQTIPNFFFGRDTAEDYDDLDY

Row | Structure (SMILES) | IC50 [µM]
1 | NC(=O)c1cc(-c2ccc(OCc3cccc(C(F)(F)F)c3)cc2)c(C(F)(F)F)[nH]c1=O [Example 79, 2-oxo-6-(trifluoromethyl)-5-(4-((3-(trifluoromethyl)benzyl)oxy)phenyl)-1,2-dihydropyridine-3-carboxamide] | 5 to 10
2 | NC(=O)c1cc(-c2ccc(OCc3cncnc3)cc2)c(C(F)(F)F)[nH]c1=O [Example 82, 2-oxo-5-(4-(pyrimidin-5-ylmethoxy)phenyl)-6-(trifluoromethyl)-1,2-dihydropyridine-3-carboxamide] | 25 to 50
3 | CN1CCC(COc2ccc(-c3cc(C(N)=O)c(=O)[nH]c3C(F)(F)F)cc2)CC1 [Example 83, 5-(4-((1-methylpiperidin-4-yl)methoxy)phenyl)-2-oxo-6-(trifluoromethyl)-1,2-dihydropyridine-3-carboxamide] | 25 to 50
4 | NC(=O)c1cc(-c2ccc(OCc3ccnnc3)cc2)c(C(F)(F)F)[nH]c1=O [Example 84, 2-oxo-5-(4-(pyridazin-4-ylmethoxy)phenyl)-6-(trifluoromethyl)-1,2-dihydropyridine-3-carboxamide] | 25 to 50
5 | NC(=O)c1cc(-c2ccc(OCc3ccc4cn[nH]c4c3)cc2)c(C(F)(F)F)[nH]c1=O [Example 85, 5-(4-((1H-indazol-6-yl)methoxy)phenyl)-2-oxo-6-(trifluoromethyl)-1,2-dihydropyridine-3-carboxamide] | 25 to 50
6 | NC(=O)c1cc(-c2ccc(OCc3ccc4cc[nH]c4c3)cc2)c(C(F)(F)F)[nH]c1=O [Example 86, 5-(4-((1H-indol-6-yl)methoxy)phenyl)-2-oxo-6-(trifluoromethyl)-1,2-dihydropyridine-3-carboxamide] | 5 to 10
7 | NC(=O)c1cc(-c2ccc(OCc3ccc(C(F)(F)F)cc3)cc2)c(C(F)(F)F)[nH]c1=O [Example 87, 2-oxo-6-(trifluoromethyl)-5-(4-((4-(trifluoromethyl)benzyl)oxy)phenyl)-1,2-dihydropyridine-3-carboxamide] | 1 to 5
8 | NC(=O)c1cc(-c2ccc(OCC3CNC(=O)C3)cc2)c(C(F)(F)F)[nH]c1=O (stereo not drawn) [Example 88, 2-oxo-5-(4-((5-oxopyrrolidin-3-yl)methoxy)phenyl)-6-(trifluoromethyl)-1,2-dihydropyridine-3-carboxamide] | 5 to 10
9 | N#Cc1ccccc1COc1ccc(-c2cc(C(N)=O)c(=O)[nH]c2C(F)(F)F)cc1 [Example 89, 5-(4-((2-cyanobenzyl)oxy)phenyl)-2-oxo-6-(trifluoromethyl)-1,2-dihydropyridine-3-carboxamide] | 25 to 50
10 | NC(=O)c1cc(-c2ccc(OCc3ccn4nnnc4c3)cc2)c(C(F)(F)F)[nH]c1=O [Example 90, 2-oxo-5-(4-(tetrazolo[1,5-a]pyridin-7-ylmethoxy)phenyl)-6-(trifluoromethyl)-1,2-dihydropyridine-3-carboxamide] | 25 to 50
11 | NC(=O)c1cc(-c2ccc(OCc3ccn4ccnc4c3)cc2)c(C(F)(F)F)[nH]c1=O [Example 91, 5-(4-(imidazo[1,2-a]pyridin-7-ylmethoxy)phenyl)-2-oxo-6-(trifluoromethyl)-1,2-dihydropyridine-3-carboxamide] | 25 to 50
12 | CN1CCCC(COc2ccc(-c3cc(C(N)=O)c(=O)[nH]c3C(F)(F)F)cc2)C1 (stereo not drawn) [Example 92, 5-(4-((1-methylpiperidin-3-yl)methoxy)phenyl)-2-oxo-6-(trifluoromethyl)-1,2-dihydropyridine-3-carboxamide] | 25 to 50
13 | NC(=O)c1cc(-c2ccc(OCc3ccc(F)c([N+](=O)[O-])c3)cc2)c(C(F)(F)F)[nH]c1=O [Example 93, 5-(4-((4-fluoro-3-nitrobenzyl)oxy)phenyl)-2-oxo-6-(trifluoromethyl)-1,2-dihydropyridine-3-carboxamide] | 10 to 25
14 | NC(=O)c1cc(-c2ccc(OCc3ccc4no[n+]([O-])c4c3)cc2)c(C(F)(F)F)[nH]c1=O [Example 94] | 25 to 50
15 | N#Cc1cncc(COc2ccc(-c3cc(C(N)=O)c(=O)[nH]c3C(F)(F)F)cc2)c1 [Example 99, 5-(4-((5-cyanopyridin-3-yl)methoxy)phenyl)-2-oxo-6-(trifluoromethyl)-1,2-dihydropyridine-3-carboxamide] | 25 to 50
16 | NC(=O)c1cc(-c2ccc(OCC3CCCOC3)cc2)c(C(F)(F)F)[nH]c1=O (stereo not drawn) [Example 102, 2-oxo-5-(4-((tetrahydro-2H-pyran-3-yl)methoxy)phenyl)-6-(trifluoromethyl)-1,2-dihydropyridine-3-carboxamide] | 5 to 10
17 | Cc1noc(C)c1COc1ccc(-c2cc(C(N)=O)c(=O)[nH]c2C(F)(F)F)cc1 [Example 107, 5-(4-((3,5-dimethylisoxazol-4-yl)methoxy)phenyl)-2-oxo-6-(trifluoromethyl)-1,2-dihydropyridine-3-carboxamide] | 25 to 50
18 | Cn1cc(COc2ccc(-c3cc(C(N)=O)c(=O)[nH]c3C(F)(F)F)cc2)c(C(F)(F)F)n1 [Example 109, 5-(4-((1-methyl-3-(trifluoromethyl)-1H-pyrazol-4-yl)methoxy)phenyl)-2-oxo-6-(trifluoromethyl)-1,2-dihydropyridine-3-carboxamide] | 25 to 50

Row | Structure (SMILES) | IC50 [µM]
19 | NC(=O)c1cc(-c2ccc(OCc3ccsc3)cc2)c(C(F)(F)F)[nH]c1=O [Example 110, 2-oxo-5-(4-(thiophen-3-ylmethoxy)phenyl)-6-(trifluoromethyl)-1,2-dihydropyridine-3-carboxamide] | 5 to 10
20 | Cn1nccc1COc1ccc(-c2cc(C(N)=O)c(=O)[nH]c2C(F)(F)F)cc1 [Example 126, 5-(4-((1-methyl-1H-pyrazol-5-yl)methoxy)phenyl)-2-oxo-6-(trifluoromethyl)-1,2-dihydropyridine-3-carboxamide] | 25 to 50
21 | NC(=O)c1cc(-c2ccc(OCc3cncs3)cc2)c(C(F)(F)F)[nH]c1=O [Example 134, 2-oxo-5-(4-(thiazol-5-ylmethoxy)phenyl)-6-(trifluoromethyl)-1,2-dihydropyridine-3-carboxamide] | 25 to 50
22 | NC(=O)c1cc(-c2ccc(OCc3nccs3)cc2)c(C(F)(F)F)[nH]c1=O [Example 143, 2-oxo-5-(4-(thiazol-2-ylmethoxy)phenyl)-6-(trifluoromethyl)-1,2-dihydropyridine-3-carboxamide] | 10 to 25
23 | NC(=O)c1cc(-c2ccc(OCc3cnc(NCC4CC4)nc3)cc2)c(C(F)(F)F)[nH]c1=O [Example 161] | 10 to 25
24 | NC(=O)c1cc(-c2ccc(OCc3cnc4c(c3)ncn4CC3CC3)cc2)c(C(F)(F)F)[nH]c1=O [Example 175, 5-(4-((3-(cyclopropylmethyl)-3H-imidazo[4,5-b]pyridin-6-yl)methoxy)phenyl)-2-oxo-6-(trifluoromethyl)-1,2-dihydropyridine-3-carboxamide] | 25 to 50
25 | NC(=O)c1cc(-c2ccc(OCc3ccc(Cl)nc3)cc2)c(C(F)(F)F)[nH]c1=O [Example 176, 5-(4-((6-chloropyridin-3-yl)methoxy)phenyl)-2-oxo-6-(trifluoromethyl)-1,2-dihydropyridine-3-carboxamide] | 25 to 50
26 | NC(=O)c1cc(-c2ccc(COc3cccnc3)cc2)c(C(F)(F)F)[nH]c1=O [Example 177, 2-oxo-5-(4-((pyridin-3-yloxy)methyl)phenyl)-6-(trifluoromethyl)-1,2-dihydropyridine-3-carboxamide] | 25 to 50
27 | NC(=O)c1cc(-c2ccc(OCc3cncc(C4(O)COC4)c3)cc2)c(C(F)(F)F)[nH]c1=O [Example 181, 5-(4-((5-(3-hydroxyoxetan-3-yl)pyridin-3-yl)methoxy)phenyl)-2-oxo-6-(trifluoromethyl)-1,2-dihydropyridine-3-carboxamide] | 25 to 50
28 | NC(=O)c1cc(-c2ccc(OC(c3cccnc3)C3CC3)cc2)c(C(F)(F)F)[nH]c1=O (stereo not drawn) [Example 184, 5-(4-(cyclopropyl(pyridin-3-yl)methoxy)phenyl)-2-oxo-6-(trifluoromethyl)-1,2-dihydropyridine-3-carboxamide] | 10 to 25
29 | C=CCCC(Oc1ccc(-c2cc(C(N)=O)c(=O)[nH]c2C(F)(F)F)cc1)c1cccnc1 (stereo not drawn) [Example 185, 2-oxo-5-(4-((1-(pyridin-3-yl)pent-4-en-1-yl)oxy)phenyl)-6-(trifluoromethyl)-1,2-dihydropyridine-3-carboxamide] | 10 to 25
30 | COCC(Oc1ccc(-c2cc(C(N)=O)c(=O)[nH]c2C(F)(F)F)cc1)c1cccnc1 (stereo not drawn) [Example 186, 5-(4-(2-methoxy-1-(pyridin-3-yl)ethoxy)phenyl)-2-oxo-6-(trifluoromethyl)-1,2-dihydropyridine-3-carboxamide] | 25 to 50
31 | NC(=O)c1cc(-c2ccc(OCC3CNCCO3)cc2)c(C(F)(F)F)[nH]c1=O (stereo not drawn) [Example 189, 5-(4-(morpholin-2-ylmethoxy)phenyl)-2-oxo-6-(trifluoromethyl)-1,2-dihydropyridine-3-carboxamide] | 25 to 50
32 | CC(C)S(=O)(=O)N1CCOC(COc2ccc(-c3cc(C(N)=O)c(=O)[nH]c3C(F)(F)F)cc2)C1 (stereo not drawn) [Example 191, 5-(4-((4-(isopropylsulfonyl)morpholin-2-yl)methoxy)phenyl)-2-oxo-6-(trifluoromethyl)-1,2-dihydropyridine-3-carboxamide] | 25 to 50
33 | NC(=O)c1cc(-c2ccc(OCC3CN(CC(F)F)CCO3)cc2)c(C(F)(F)F)[nH]c1=O (stereo not drawn) [Example 192, 5-(4-((4-(2,2-difluoroethyl)morpholin-2-yl)methoxy)phenyl)-2-oxo-6-(trifluoromethyl)-1,2-dihydropyridine-3-carboxamide] | 25 to 50
34 | COCCN1CCOC(COc2ccc(-c3cc(C(N)=O)c(=O)[nH]c3C(F)(F)F)cc2)C1 (stereo not drawn) [Example 193, 5-(4-((4-(2-methoxyethyl)morpholin-2-yl)methoxy)phenyl)-2-oxo-6-(trifluoromethyl)-1,2-dihydropyridine-3-carboxamide] | 25 to 50
35 | NC(=O)c1cc(-c2ccc(OCC3CN(CC4CC4)CCO3)cc2)c(C(F)(F)F)[nH]c1=O (stereo not drawn) [Example 194, 5-(4-((4-(cyclopropylmethyl)morpholin-2-yl)methoxy)phenyl)-2-oxo-6-(trifluoromethyl)-1,2-dihydropyridine-3-carboxamide] | 25 to 50
36 | NC(=O)c1cc(-c2ccc(OCC3CNCCCO3)cc2)c(C(F)(F)F)[nH]c1=O (stereo not drawn) [Example 195, 5-(4-((1,4-oxazepan-2-yl)methoxy)phenyl)-2-oxo-6-(trifluoromethyl)-1,2-dihydropyridine-3-carboxamide] | 25 to 50
